Results published in patent US9260382B2, “Methods of reducing virulence in bacteria” (priority 2010, dated 2016).
Where “and” joins values, the source holds several entries; their conditions need not be identical. Equal entries are not always repeated.

Assays:
hrpA promoter (T3SS) = experiment: GFP reporter plasmid phrpA, flow cytometry (FACS) of hrpA promoter activity; assay type: cell-based, Dickeya dadantii 3937; settings: for GFP Mean Fluorescence Intensity, hrpA promoter: MM + 0.1 mM compound
Outline: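 D. dadantii (Ech) 3937 carrying the phrpA promoter–GFP transcriptional fusion was grown in T3SS minimal medium with 100 μM compound, starting from an inoculum of OD600 1.0. GFP was read by flow cytometry at 12 and 24 h. Values are mean fluorescence intensity of three replicates ± SD, with compound-free MM as control.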

hrpN promoter (T3SS) = experiment: GFP reporter plasmid phrpN, flow cytometry of hrpN promoter activity; assay type: cell-based, Dickeya dadantii 3937; settings: MM + 0.1 mM compound
Protocol: (§1) FACS analysis of promoter activity of dspE, hrpA, hrpL, hrpN, and hrpS was carried out as described (Peng et al., 2006). Briefly, the wild-type Ech3937 and the mutant strains carrying the promoter reporter plasmid were grown on LB broth at 28° C. overnight and transferred to appropriate media. For FACS analysis, samples were collected by centrifugation, washed with 1× phosphate buffer saline (PBS) at 13,000 rpm for 1 min, and re-suspended in 1×PBS to ca 10^6 CFU/ml prior to being run in a FACS Calibur flow cytometer (BD Biosciences, CA). Three replicates were performed for each treatment.
(§2) Phenolic compounds constitute an important class of organic substances produced by plants. The phenolic compound SA is a signaling molecule that plays a role in host defenses. OCA and TCA are the biosynthetic precursors of SA and are also reported to induce the expression of defense-related genes in plants. OCA, TCA, and SA were examined to elucidate their effects on the expression of T3SS genes. The expression of the T3SS gene hrpN was examined in MM and MM supplemented with OCA, TCA, and SA, at concentrations of 0.05, 0.1, and 0.2 mM, respectively. FIGS. 2A and 2B show the promoter activities of hrpN in Dickeya dadantii 3937 (Ech3937) grown in MM and MM supplemented with 0.05, 0.1, and 0.2 mM OCA, TCA, and SA at 12 h (FIG. 2A) and 24 h (FIG. 2B) post-inoculation. GFP intensity was determined on gated populations of bacterial cells by flow cytometry and analyzed with the Cell Quest software (BD Biosciences, San Jose, Calif.). The growth of Ech3937 in MM supplemented with different concentrations of OCA, TCA and SA was recorded. Compared with MM alone, the average GFP fluorescence intensity of bacterial cells of Ech3937 (phrpN) was increased approximately 4-fold when 0.05 mM of OCA and TCA were added to the medium (FIGS. 2A, 2B).

hrpL promoter = experiment: GFP reporter plasmid phrpL, flow cytometry of hrpL promoter activity; assay type: cell-based, Dickeya dadantii 3937; settings: Ech3937 (phrpL), MM + 0.1 mM compound, 12 h
Protocol: as §1

[1] = tested on: pPROBE-AT vector without promoter insert; experiment: pPROBE-AT vector control, flow cytometry; assay type: cell-based, Dickeya dadantii 3937; settings: Ech3937 (pPROBE-AT), MM + 0.1 mM compound
Protocol: as §1

[2] = tested on: Dickeya dadantii 3937 (Ech3937); experiment: Bacterial growth in MM supplemented with compound; assay type: cell-based; settings: compound added into the MM
Source text: as §2
The expression of the T3SS gene hrpA was further examined in MM and MM supplemented with PCA at concentrations of 0.001, 0.005, 0.01, 0.05 and 0.1 mM respectively. FIGS. 16A and 16B show the promoter activities of hrpA in Dickeya dadantii 3937 (Ech3937) grown in minimum medium (MM) and MM supplemented with different amount of p-coumaric acid (PCA) at 12 h (FIG. 16A) and 24 h (FIG. 16B) post-inoculation. GFP intensity was determined on gated populations of bacterial cells by flow cytometry and analyzed with the Cell Quest software (BD Biosciences, San Jose, Calif.). The growth of Ech3937 in MM supplemented with different concentrations of PCA was recorded. Compared with MM alone, the average GFP fluorescence intensity of bacterial cells of Ech3937 (phrpA) was reduced more than 4-fold when 0.05 and 0.1 mM of PCA were added to the medium (FIGS. 16A, 16B).

rsmB RNA = experiment: qRT-PCR relative mRNA level of rsmB; assay type: cell-based, Dickeya dadantii 3937; settings: 0.1 mM in MM
Protocol: Bacterial strains were grown in MM. Total RNA from the bacterial cells was isolated by using the TRI reagent method (Sigma, Mo.) and treated with Turbo DNA-free DNase kits (Ambion, Tex.) as described (Peng et al., 2006). An iScript cDNA Synthesis Kit (Bio-Rad, CA) was used to synthesize cDNA from 0.5 μg of treated total RNA. The Real Master Mix (Eppendorf, Westbury, N.Y.) was used for qRT-PCR reaction to quantify the cDNA level of target genes in different samples. The rplU was used as the endogenous control for data analysis. qRT-PCR data were analyzed using Relative Expression Software Tool as described (Pfaffl, M. W., Horgan, G. W., and Dempfle, L. (2002) Relative expression software tool (REST) for group-wise comparison and statistical analysis of relative expression results in real-time PCR. Nucleic Acids Res 30:e36.).

## O=C(O)/C=C/c1ccc(O)cc1 [Compound 004, para-coumaric acid]
hrpA promoter (T3SS); 10 μM added to T3SS-inducing minimal medium (MM)
  inhibitory effect on hrpA at 10 μM, in words: No inhibitory effect
hrpA promoter (T3SS); Ech3937 (phrpA), 12 h, listed as PCA
  GFP Mean Fluorescence Intensity, hrpA promoter: 9.2 ± 0.4
hrpA promoter (T3SS); Trial 1, MM supplemented with compound at 100 μM
  Mean Fluorescence Intensity of GFP (hrpA, phrpA): 9.4 ± 0.1
hrpA promoter (T3SS); Trial 2, MM supplemented with compound at 100 μM
  Mean Fluorescence Intensity of GFP (hrpA, phrpA): 9.3 ± 0.2
hrpA promoter (T3SS); concentrations at 0.001, 0.005 and 0.01
  effect on GFP fluorescence intensity of Ech3937 (phrpA), in words: did not result in substantial reduction of GFP fluorescence intensity
hrpA promoter (T3SS); hrpL mutant WPP96 (phrpA), 12 h
  GFP Mean Fluorescence Intensity, hrpA promoter: 7.3 ± 0.1
hrpA promoter (T3SS); hrpL mutant WPP96 (phrpA), 24 h
  GFP Mean Fluorescence Intensity, hrpA promoter: 9.0 ± 1.6
hrpA promoter (T3SS); hrpS mutant WPP90 (phrpA), 12 h
  GFP Mean Fluorescence Intensity, hrpA promoter: 7.9 ± 0.2
hrpA promoter (T3SS); hrpS mutant WPP90 (phrpA), 24 h
  GFP Mean Fluorescence Intensity, hrpA promoter: 9.3 ± 0.2
hrpA promoter (T3SS); hrpX mutant WPP67 (phrpA), 12 h
  GFP Mean Fluorescence Intensity, hrpA promoter: 7.9 ± 0.2
hrpA promoter (T3SS); hrpX mutant WPP67 (phrpA), 24 h
  GFP Mean Fluorescence Intensity, hrpA promoter: 9.0 ± 1.3
hrpA promoter (T3SS); hrpY mutant WPP92 (phrpA), 12 h
  GFP Mean Fluorescence Intensity, hrpA promoter: 6.9 ± 0.1
hrpA promoter (T3SS); hrpY mutant WPP92 (phrpA), 24 h
  GFP Mean Fluorescence Intensity, hrpA promoter: 9.4 ± 0.7
hrpN promoter (T3SS); Ech3937 (phrpN), 12 h, listed as PCA
  GFP Mean Fluorescence Intensity, hrpN promoter: 6.8 ± 0.8 and 4.3 ± 0.1
hrpN promoter (T3SS); Ech3937 (phrpN), 24 h, listed as PCA
  GFP Mean Fluorescence Intensity, hrpN promoter: 8.8 ± 2.1
hrpN promoter (T3SS); hrpL mutant WPP96 (phrpN), 12 h
  GFP Mean Fluorescence Intensity, hrpN promoter: 3.0 ± 0.0
hrpN promoter (T3SS); hrpL mutant WPP96 (phrpN), 24 h
  GFP Mean Fluorescence Intensity, hrpN promoter: 4.3 ± 0.1
hrpN promoter (T3SS); hrpS mutant WPP90 (phrpN), 12 h
  GFP Mean Fluorescence Intensity, hrpN promoter: 3.5 ± 0.1
hrpN promoter (T3SS); hrpS mutant WPP90 (phrpN), 24 h
  GFP Mean Fluorescence Intensity, hrpN promoter: 5.1 ± 0.1
hrpN promoter (T3SS); hrpX mutant WPP67 (phrpN), 12 h
  GFP Mean Fluorescence Intensity, hrpN promoter: 3.5 ± 0.2
hrpN promoter (T3SS); hrpX mutant WPP67 (phrpN), 24 h
  GFP Mean Fluorescence Intensity, hrpN promoter: 6.3 ± 0.7
hrpN promoter (T3SS); hrpY mutant WPP92 (phrpN), 12 h
  GFP Mean Fluorescence Intensity, hrpN promoter: 3.6 ± 0.1
hrpN promoter (T3SS); hrpY mutant WPP92 (phrpN), 24 h
  GFP Mean Fluorescence Intensity, hrpN promoter: 5.5 ± 0.3
hrpL promoter
  GFP Mean Fluorescence Intensity, hrpL promoter: 7.8 ± 0.1
[1]; 12 h, listed as PCA
  GFP Mean Fluorescence Intensity, vector control: 2.2 ± 0.2 and 2.3 ± 0.1
[1]; 24 h
  GFP Mean Fluorescence Intensity, vector control: 4.9 ± 0.1
[2]
  effect on bacterial growth of Ech3937 in MM, in words: Inhibition of bacterial growth was not observed
rsmB RNA
  rsmB mRNA compared with MM alone, in words: No significant difference
